The record followed here is US7897640B2 (priority 2003, dated 2011).

Data set [1] relates to AZT-resistant strain HIV-1 018c. To be noted: PBMC, AZT-resistant HIV-1 018c.
For data set [2], the system named is AZT-sensitive strain HIV-1 018a. The data set is described as follows: HIV-1 P24 antigen inhibition in PBMC, AZT-sensitive strain.
The nature of data set [3]: cytotoxicity by MTT in HIV-infected PBMC culture. To be noted: human, Median cytotoxicity concentration (CC50).
Protocol: (§1) 10 μl MTT dye (5 mg/ml) was added to each well, and then incubated at 37° C., 5% CO2 saturated humidity incubator for 4 hours. 100 μl 50% DMF-17% Triton X-100 destainer was added to each well and the mixtures were kept at 37° C. overnight. Then OD570nm values were measured at 570 nm with a luminometer to calculate the median cytotoxicity concentration of medicament (CC50).
(§2) The fresh normal human venous blood was taken and PBMC was separated using FiColl separation solution. The 1.5×10^5 cells/ml suspension prepared with the culture fluid containing PHA was seeded into the culture bottle and incubated in the incubator (37° C., 5% CO2) for 72 hours. The cells were collected with cell scrapers then were infected with the 10^−2 viral liquid of AZT-sensitive (018a) or AZT-resistant (018c) viral strain. After absorption for 2 hours, the non-absorbed viruses were washed with serum-free 1640 culture medium. The infected cells were prepared into 1×10^6 cells/ml with the culture fluid, and then were seeded into the 96-well culture board in 100 μl/well. At the same time, 100 μl liquor of 2× diluted AKJ-2 or 5× diluted positive control medicament AZT with different concentrations was added. The cell control group and virus control group were established. Four days (96 hours) after incubating under 37° C., 5% CO2, the supernatants were sucked out and stored at −20° C. to measure HIV-1-P24 antigen titer and calculate the inhibition effect of the medicament. The cells were dyed with MTT to measure the cytotoxicity.
Data set [4] has as its system HIV-1 IIIB. The data set can be described thus: HIV-1 P24 antigen inhibition in MT-4 culture.
Protocol: MT-4 cell suspension was counted, then 100 μl of suspension (2×10^5 cells/ml) was seeded into 96-well cell culture plate, 50 μl liquor of 2× diluted medicament or 4-5× diluted positive medicament AZT (8 concentrations) was added, respectively, and 50 μl virus suspension with proper titer was add concurrently. Each dilution was repeated in 3 wells and cell control group and virus control group were established. They were incubated at 37° C., 5% CO2 saturated humidity incubator and the cytopathy was observed everyday. On the fourth day after administration (96 hours), the supernatants were sucked out and stored at −20° C. for measuring HIV-1-P24 antigen titer. Accordingly, the inhibition effect of medicament could be calculated, and the cells were dyed with MTT to measure the cytotoxicity.
The medicated cell supernatants infected with MT-4 were diluted after being thawed. HIV-1 P24 titer was measured according to the operation procedure described in HIV-1 P24 antigen kit.
[formula] 2.2.2 Reed & Muench Method for Calculating CC50 and EC50 of Medicament in Cell Culture
[formula] 2.2.3. Calculation Method of Selection Index (SI) of HIV-1 P24 Antigen in Cell Culture SI=CC50/EC50 3.
For data set [5], the system named is AZT-sensitive strain HIV-1 018a.
Data set [6] has as its system HIV-1 IIIB. The data set is described as follows: HIV-1 P24 antigen inhibition in chronically infected H9 cells.
Protocol: HIV-1 P24 antigen titer was measured according to the operation procedures stated in HIV-1 P24 antigen kit.
100 μl (2×10^5 cells/ml) of H9 cells suspension was seeded into 96-well cell culture plate. Then, 100 μl liquor of 2× diluted medicament or 4-5× diluted positive AZT (8 concentrations) was added. Each dilution was repeated in three wells. The cell control group was established. The cells were incubated in the incubator (37° C., 5% CO2, saturated humidity) and the cytopathy was observed everyday. Four days (96 hours) after administration, the supernatants were sucked out and stored at −20° C. to measure HIV-1-P24 antigen titer. The inhibition effect of the medicament was determined. The cells were dyed with MTT to measure the cytotoxicity.
2.2.2 Reed & Muench Method for Calculating CC50 and EC50 of Medicament in Cell Culture
Calculation Method of Selection Index (SI) of HIV-1 P24 Antigen in Cell Culture SI=CC50/EC50 3.
For data set [7], the system named is AZT-resistant strain HIV-1 018c. The data set can be described thus: microbe, parasite or virus in culture. The note with it: Human immunodeficiency virus 1, PBMC, 96 h, read-out: Median effective concentration (EC50), HIV-1 P24 antigen.
Data set [8] has as its system human T lymphocytes H9 chronically infected with HIV-1 IIIB. The data set can be described thus: cytotoxicity by MTT in H9 cells chronically infected with HIV-1 IIIB. To be noted: H9 cell chronically infected with HIV-1 IIIB, 96 hours.
The subject of data set [9] is human peripheral blood mononuclear cell (PBMC). The data set can be described thus: cytotoxicity by MTT in HIV-infected PBMC culture. To be noted: 96 hours.
Protocol: as §1, §2
The subject of the next data set is human T lymphocytes MT-4. The data set is described as follows: cytotoxicity by MTT in MT-4 culture. The note with it: MT-4 culture with HIV-1 IIIB, 96 hours.
The next data set in a line: solubility. It is filed as physicochemical.
The test system of another data set is mycoplasma pneumoniae. The data set is described as follows: bacteriostatic effect on mycoplasma pneumoniae. Format: cell-based.
The test system of data set [10] is aspergillus fumigatus, cryptococcus and red trichophyton. The data set can be described thus: in vitro antifungal test, aspergillus fumigatus, cryptococcus and red trichophyton. It is filed as cell-based.
In data set [11] the test system is Staphylococcus epidermidis. The data set is described as follows: comparative MIC experiment, Staphylococcus epidermidis. Format: cell-based.
A further data set deals with dermatophyte. The data set is described as follows: in vitro antifungal test, dermatophyte. Format: cell-based.
Another data set relates to Serratia marcescens. The data set can be described thus: comparative MIC experiment, Serratia marcescens. It is filed as cell-based.
The test system of a further data set is Candida albicans. The data set can be described thus: comparative MIC experiment, Candida albicans. Format: cell-based.
For another data set, the system named is Bacteroid. The data set can be described thus: comparative MIC experiment, Bacteroid. Format: cell-based.
The test system of another data set is Pseudallescheria boydii. The data set can be described thus: in vitro antifungal test, Pseudallescheria boydii. It is filed as cell-based.
In the next data set the test system is candida and cryptococcus. The data set can be described thus: in vitro antifungal test, candida and cryptococcus. Format: cell-based.
[12] abbreviates: PBMC infected with AZT-resistant HIV-1 018c.
[13] abbreviates: PBMC infected with AZT-sensitive HIV-1 018a.

Converted amounts (≈) assume the structure as drawn. Like-named read-outs stand apart in the source and are kept apart here.

Usually CC50 stands for the concentration at which the toxic effect on the cells reaches its halfway point. Low values mean harm at low concentration, high ones better tolerance by the cells. Consider `Cc1cn([C@H]2C[C@H](N=[N+]=[N-])[C@@H](CO)O2)c(=O)[nH]c1=O` [AZT, Zidovudine, reference compound], for which the “Selection index (CC50/EC50)” value was found to be 1895.40 ± 479.53 in [1]; 1808.33 ± 723.07 in the data set with HIV-1 IIIB [4] (MT-4, HIV-1 IIIB); 10275.78 ± 1530.22 in data set [5]; 83.65 ± 37.96 in the data set with HIV-1 IIIB [6] (H9 cell chronically infected with HIV-1 IIIB). The EC50 in data set [2] (Human immunodeficiency virus 1, PBMC, 96 h, read-out: Median effective concentration (EC50), HIV-1 P24 antigen) was under 6.4 ng/mL; with HIV-1 IIIB [4] (Human immunodeficiency virus 1, IIIB, 96 h, read-out: Median effective concentration (EC50), HIV-1 P24 antigen), 0.09 ± 0.003 µg/mL (≈ 0.337 µM); with HIV-1 IIIB [6] (Human immunodeficiency virus 1, IIIB, H9, 96 h, read-out: Median effective concentration (EC50), HIV-1 P24 antigen) it was 1.08 ± 0.24 µg/mL (≈ 4.04 µM); in [7], 0.05 ± 0.01 µg/mL (≈ 0.187 µM). For the same compound, the half-maximal cytotoxic concentration (CC50) at 96 h amounted to 88 ± 15.5 µg/mL (≈ 329 µM) in [3] (setting [12]) and 77.2 ± 20.9 µg/mL (≈ 289 µM) in data set [3] (setting [13]).

On to `CC(=O)O[C@H](CC=C(C)C)C1=CC(=O)c2c(O)ccc(O)c2C1=O` [acetylshikonin], for which the “Median effective concentration (EC50), HIV-1 P24 antigen” value was over 1.25 ± 0 µg/mL in [1] (96 hours); 1.18 ± 0.03 µg/mL in data set [2] (PBMC, AZT-sensitive HIV-1 018a, 96 hours); 0.20 ± 0.03 µg/mL in the data set on HIV-1 IIIB [4] (MT-4, HIV-1 IIIB, 96 hours); over 0.25 ± 0 µg/mL in the data set with HIV-1 IIIB [6] (H9 cell chronically infected with HIV-1 IIIB, 96 hours). The “Selection index (CC50/EC50)” value was 6.50 ± 0.08 in data set [2] (PBMC, AZT-sensitive HIV-1 018a) and 2.45 ± 0.51 with HIV-1 IIIB [4] (MT-4, HIV-1 IIIB). In addition, the “Median cytotoxicity concentration (CC50)” value in data set [8] is 1.77 ± 0.13 µg/mL; in data set [9] (setting [12]), 5.83 ± 0.38 µg/mL; in data set [9] (setting [13]), 7.69 ± 0.19 µg/mL; in the data set with human T lymphocytes MT-4, 0.49 ± 0.06 µg/mL. The “inhibition effect on HIV-1 IIIB chronically-infected H9 cells” value with HIV-1 IIIB [6] (two lots of tests) is “no inhibition effect”. The “solubility in DMSO” value in “solubility” (DMSO) is listed as “soluble”. Besides, the solubility in water entry in “solubility” (water) is listed as “insoluble”.

On to `CC[C@H]1OC(=O)[C@H](C)[C@@H](O[C@H]2C[C@@](C)(OC)[C@@H](O)[C@H](C)O2)[C@H](C)[C@@H](O[C@@H]2O[C@H](C)C[C@H](N(C)C)[C@H]2O)[C@](C)(O)C[C@@H](C)C(=O)[C@H](C)[C@@H](O)[C@]1(C)O` [erythrocin, reference compound], for which the “concentration of equivalent inhibitory effect” value in the data set with mycoplasma pneumoniae (comparator) turned out to be 0.1925 µg/mL.

What is called MIC is the least concentration at which growth counts as inhibited. Usually MIC90 stands for the lowest concentration that inhibits either 90% of growth or 90% of the strains tested, depending on the study. For `CC(C)=CCC(OC(=O)C=C(C)C)C1=CC(=O)c2c(O)ccc(O)c2C1=O` (stereo not drawn) [β,β-dimethylacrylshikonin], the MIC in data set [10] was 3.0625 to 250 µg/mL; in data set [11] it was 0.391 µg/mL (≈ 1.06 µM); with dermatophyte, 4.16 to 8.32 µg/mL; in the data set on Serratia marcescens, 0.781 µg/mL (≈ 2.11 µM); against Candida albicans it was 3.9062 µg/mL (≈ 10.5 µM); in the data set with mycoplasma pneumoniae, 2 µg/mL (≈ 5.4 µM). Also, the MIC is 0.391 µg/mL (≈ 1.06 µM) against Bacteroid; 4.16-8.32 μg/mi against Pseudallescheria boydii; 2.08 to 33.3 µg/mL against candida and cryptococcus. Further, the MIC90 was 4.16 µg/mL (≈ 11.2 µM) in the data set on dermatophyte; 33.3 µg/mL (≈ 89.9 µM) in the data set with candida and cryptococcus.
